Reference: ChEMBL document CHEMBL1201862, “PubChem BioAssay data set” (2004)
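Dose response: 5 concentrations. Exposure: 48 h. Format: 96-well plates. Endpoint: linear interpolation; highest concentration if not reached. GI50 is the concentration that inhibits growth by half.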 Active and inactive are the calls of the source. No stated cut-off is given here; in the data, active = GI50 up to about 1.1 µM and inactive = higher.

What was measured:
Assay in all cases: growth of human tumour cells (NCI), 48 h
CAKI-1 = tested on: CAKI-1
DU-145 = tested on: DU-145
HOP-62 = tested on: HOP-62
HOP-92 = tested on: HOP-92
IGROV-1 = tested on: IGROV-1
MCF7 = tested on: MCF7
MDA-N = tested on: MDA-N
NCI-H23 = tested on: NCI-H23
NCI/ADR-RES = tested on: NCI/ADR-RES
OVCAR-5 = tested on: OVCAR-5
PC-3 = tested on: PC-3
RXF 393 = tested on: RXF 393
SF-268 = tested on: SF-268
SF-295 = tested on: SF-295
SF-539 = tested on: SF-539
SW-620 = tested on: SW-620
TK-10 = tested on: TK-10
U-251 = tested on: U-251
UACC-62 = tested on: UACC-62
NCI-H226 = tested on: NCI-H226

SMILES	GI50 (CAKI-1)	GI50 (DU-145)	GI50 (HOP-62)	GI50 (HOP-92)	GI50 (IGROV-1)	GI50 (MCF7)	GI50 (MDA-N)	GI50 (NCI-H23)	GI50 (NCI/ADR-RES)	GI50 (OVCAR-5)	GI50 (PC-3)	GI50 (RXF 393)	GI50 (SF-268)	GI50 (SF-295)	GI50 (SF-539)	GI50 (SW-620)	GI50 (TK-10)	GI50 (U-251)	GI50 (UACC-62)	GI50 (NCI-H226)
COc1cccc(-c2nc(O)c3ccccc3n2)c1	16.4 µM (inactive)	29.1 µM (inactive)	17.5 µM (inactive)	27 µM (inactive)	24.5 µM (inactive)	22.1 µM (inactive)	17.3 µM (inactive)	26.7 µM (inactive)	18.1 µM (inactive)	39.4 µM (inactive)	20.1 µM (inactive)	25.4 µM (inactive)	19.4 µM (inactive)	32.1 µM (inactive)	23.3 µM (inactive)	32.9 µM (inactive)	17.9 µM (inactive)	7.31 µM (inactive)	20.1 µM (inactive)	
O=C1CC(C(=O)N2CCCCC2)n2c(=O)n(-c3ccccc3)c(=O)n2C1 (stereo not given)	> 100 µM (inactive)	> 100 µM (inactive)	> 100 µM (inactive)		> 100 µM (inactive)	> 100 µM (inactive)	> 100 µM (inactive)	> 100 µM (inactive)	> 100 µM (inactive)	> 100 µM (inactive)	> 100 µM (inactive)	> 100 µM (inactive)	> 100 µM (inactive)	> 100 µM (inactive)	> 100 µM (inactive)		> 100 µM (inactive)		> 100 µM (inactive)	> 100 µM (inactive)
O=c1ccn(C2OC(CO)C(P(=O)(O)O)C2O)c(=O)[nH]1 (stereo not given)	> 100 µM (inactive)	> 100 µM (inactive)	> 100 µM (inactive)	> 100 µM (inactive)	> 100 µM (inactive)	> 100 µM (inactive)	> 100 µM (inactive)	> 100 µM (inactive)		> 100 µM (inactive)	> 100 µM (inactive)	> 100 µM (inactive)	> 100 µM (inactive)	> 100 µM (inactive)	> 100 µM (inactive)	> 100 µM (inactive)	> 100 µM (inactive)	> 100 µM (inactive)	> 100 µM (inactive)	> 100 µM (inactive)
CC(C)N(C(C)C)S(=O)(=O)CC12CCC(C/C1=N\O)C2 (stereo not given)	> 100 µM (inactive)	> 100 µM (inactive)	> 100 µM (inactive)		> 100 µM (inactive)	> 100 µM (inactive)	> 100 µM (inactive)	> 100 µM (inactive)	> 100 µM (inactive)	> 100 µM (inactive)	> 100 µM (inactive)	> 100 µM (inactive)	> 100 µM (inactive)	> 100 µM (inactive)	> 100 µM (inactive)	> 100 µM (inactive)	> 100 µM (inactive)	> 100 µM (inactive)	> 100 µM (inactive)	> 100 µM (inactive)
CCOC(=O)c1c(Br)c(-c2ccc([N+](=O)[O-])cc2)c(Br)n1C	> 10 µM (inactive)	> 10 µM (inactive)	> 10 µM (inactive)	2.47 µM (inactive)	> 10 µM (inactive)	> 10 µM (inactive)	> 10 µM (inactive)	> 10 µM (inactive)	> 10 µM (inactive)	> 10 µM (inactive)	> 10 µM (inactive)		> 10 µM (inactive)	> 10 µM (inactive)	> 10 µM (inactive)		> 10 µM (inactive)	> 10 µM (inactive)	7.28 µM (inactive)	> 10 µM (inactive)
CN1CCc2c(sc3nc(Nc4ccccc4)n(N)c(=O)c23)C1	> 100 µM (inactive)	> 100 µM (inactive)	> 100 µM (inactive)		> 100 µM (inactive)	51.4 µM (inactive)	> 100 µM (inactive)	> 100 µM (inactive)	> 100 µM (inactive)	> 100 µM (inactive)	> 100 µM (inactive)	63.4 µM (inactive)	> 100 µM (inactive)	63.1 µM (inactive)	> 100 µM (inactive)		> 100 µM (inactive)		38.4 µM (inactive)	> 100 µM (inactive)
COc1c(O)cc2ccnc3c2c1N(C)C=C3	> 100 µM (inactive)	> 100 µM (inactive)	> 100 µM (inactive)		> 100 µM (inactive)	> 100 µM (inactive)	> 100 µM (inactive)	> 100 µM (inactive)	> 100 µM (inactive)	> 100 µM (inactive)	> 100 µM (inactive)	> 100 µM (inactive)	> 100 µM (inactive)	55 µM (inactive)		86.1 µM (inactive)	> 100 µM (inactive)	> 100 µM (inactive)	> 100 µM (inactive)	> 100 µM (inactive)
C=CCOc1ccc(C2c3c(n[nH]c3O)CC(O)(OCC)C2C(=O)OCC)cc1OC (stereo not given)	> 100 µM (inactive)	> 100 µM (inactive)	> 100 µM (inactive)	> 100 µM (inactive)	> 100 µM (inactive)	> 100 µM (inactive)	> 100 µM (inactive)	> 100 µM (inactive)	> 100 µM (inactive)	> 100 µM (inactive)	> 100 µM (inactive)		> 100 µM (inactive)	> 100 µM (inactive)	> 100 µM (inactive)	> 100 µM (inactive)	> 100 µM (inactive)	> 100 µM (inactive)	0.1 µM (active)	
COc1ccc(/C=N/Nc2nc3ccccc3c(=O)n2-c2ccccc2)cc1	> 100 µM (inactive)	> 100 µM (inactive)	> 100 µM (inactive)		> 100 µM (inactive)	3.61 µM (inactive)	> 100 µM (inactive)	55.6 µM (inactive)	> 100 µM (inactive)	> 100 µM (inactive)	> 100 µM (inactive)	> 100 µM (inactive)	> 100 µM (inactive)	> 100 µM (inactive)	> 100 µM (inactive)	> 100 µM (inactive)	> 100 µM (inactive)	> 100 µM (inactive)	24.4 µM (inactive)	> 100 µM (inactive)
O=C1CSC(c2c[nH]c3ccccc23)N1c1ccccc1[N+](=O)[O-] (stereo not given)		> 100 µM (inactive)	> 100 µM (inactive)	> 100 µM (inactive)	> 100 µM (inactive)	> 100 µM (inactive)	> 100 µM (inactive)	> 100 µM (inactive)		> 100 µM (inactive)	> 100 µM (inactive)	> 10 µM (inactive)	> 100 µM (inactive)	> 100 µM (inactive)	> 100 µM (inactive)	> 100 µM (inactive)	> 100 µM (inactive)	> 100 µM (inactive)	> 100 µM (inactive)	
O=C1/C(=C/c2ccc([N+](=O)[O-])cc2)CCCc2ccccc21	> 100 µM (inactive)	> 100 µM (inactive)	54.3 µM (inactive)	> 100 µM (inactive)	> 100 µM (inactive)	> 100 µM (inactive)	> 100 µM (inactive)	> 100 µM (inactive)	> 100 µM (inactive)	> 100 µM (inactive)	> 100 µM (inactive)		30.4 µM (inactive)	63.5 µM (inactive)	76.2 µM (inactive)	> 100 µM (inactive)	> 100 µM (inactive)	> 100 µM (inactive)	91 µM (inactive)	> 100 µM (inactive)
